Laboratory results reported in patent US8859615B2, “Compounds, compositions and methods for reducing toxicity and treating or preventing diseases” (priority 2008, dated 2014).
Values joined by “and” are separate entries in the source; they are usually repeats but may differ in a detail not shown here. Identical values can stand only once. Like-named read-outs stand apart in the source and are kept apart here.

Experiments:
leukemic CCRF CEM cells = test: Precursor incorporation into DNA, RNA and protein (Table 9); format: cell-based, human
Description: The radioactive tracer studies were carried out as described by Chou T C, et al. Cancer Res. 43: 3074-3079, 1983.

[1] = system: human lymphoblastic leukemic T-cell growth; test: Cytotoxic activity relative to stability during storage at −20° C. in DMSO (Table 10); format: cell-based; details: Homo sapiens, CCRF-CEM, 72 h, XTT, 72 hr
From the text: Without wishing to be bound by theory, the oxidized versions may be active metabolites. This theory provides an explanation of the delayed onset of therapeutic effects seen in the figures herein. The oxidized compounds may be active agents that are formed slowly upon metabolic oxidation. […] The active metabolites may explain the biphasic pharmacological properties of panaxytriol or Compound D that have been observed (FIGS. 9B, C, D; FIGS. 11D, E, F, and FIGS. 12D, E). […] Induction of the phase 2 enzymes may slow oxidation of the compounds (Ng et al., Tetrahedron Letters. 49: 7178-7179 (2008)).

[2] = system: CCRF-CEM/VBL100 vinblastine-resistant cells; test: In vitro cytotoxicity against vinblastine-resistant CCRF-CEM subline; format: cell-based, human; details: for IC50: Homo sapiens, CCRF-CEM, 72 h; for fold resistance in brackets (IC50 CCRF-CEM/VBL vs CCRF-CEM): Table 3
Description: (§1) The cytotoxicity IC50 of each compound was measured with the XTT assay using the 2,3-bis(2-methoxy-4-nitro-5-sulfophenyl)-5-[(phenylamino)carbonyl]-2H-tetrazolium hydroxide (XTT) microculture method as described in Scudiero et al., Cancer Res., 48:4827 (1988), the contents of which are hereby incorporated by reference in their entirety. The CCK-8 assay is a cell counting kit-8 (CCK-8) tetrazolium assay using a 96-well microplate (Dojindo Molecular Technologies, Inc., Rockville, Md.) (M. Ishiyama et al., Biol. Pharm. Bull. 19: 1518, 1996). Absorbance was measured by Powerwave a XS microplate spectrophotometer. This method described is considered a general method in vitro cytotoxicity studies.
(§2) The data in Tables 2X, 3A-E, 4, 5, and 6 were obtained using the cell counting kit-8 (CCK-8) tetrazolium assay in a 96-well microplate. Five to seven concentrations of each compound in triplicate were used, and the IC50 values were determined by CompuSyn software automation (Chou T C. and Martin N. ComboSyn, Inc., 2006) based on the median-effect equation and plot (Chou T C. J. Theor. Biol. 59:235-276, 1976; Chou T C. Pharmacol. Rev. 58: 621-681, 2006). […] The r value defines the correlation coefficient of the median-effect plot which signifies the conformity to the mass-action law principle (Chou T C. J. Theor. Biol. 59:235-276, 1976; Chou T C. Pharmacol. Rev. 58:621-681, 2006). These parameters were determined by CompuSyn simulation (available at http://www.combosyn.com).
(§3) CCRF-CEM human T-cell acute lymphoblastic leukemia cells and the corresponding vinblastine-resistant cells (CCRF-CEM/VBL100) were cultured at an initial density of 5×10^4 cells per milliliter. The cultured cells were maintained in a 5% CO2-humidified atmosphere at 37° C. in RPMI medium 1640 (GIBCO/BRL) containing penicillin (100 units/mL), streptomycin (100 μg/mL, GIBCO/BRL), and 10% heat-inactivated fetal bovine serum. The cytotoxicity of each Compound of the invention was measured using the 2,3-bis(2-methoxy-4-nitro-5-sulfophenyl)-5-[(phenylamino)carbonyl]-2H-tetrazolium hydroxide (XTT) microculture method as described in Scudiero et al., Cancer Res., 48:4827 (1988), the contents of which are hereby incorporated by reference in their entirety.
(§4) Absorbance was measured by Powerwave XS microplate spectrophotometer.

[3] = system: CCRF-CEM human T-cell acute lymphoblastic leukemia cells; test: In vitro cytotoxicity against CCRF-CEM (XTT / CCK-8 tetrazolium assay, 72 hr); details: Homo sapiens, CCRF-CEM, 72 h
Description: as §1, §2, §3, §4

[4] = system: human mammary carcinoma MX-1 cells; test: In vitro drug combination (median-effect / combination index, DRI) against MX-1 cell growth (Tables 5, 5A); format: cell-based; details: for IC50: MX-1, 72 hrs
Description: as §2
Efficacy of panaxytriol in combination with Fludelone (an illustrative tubulin-binding anticancer agent) was measured according to procedures described in more detail by Chou et al. (1984) Adv. Enz. Regul., 22:27-55, Chou et al. (1994) Nat'l Cancer Inst., 86:1517-1524, and Chou (2006) Pharmacological Reviews, […]:621-681. Software packages used for data analyses were CalcuSyn for Windows (Chou and Hayball., Multiple-drug dose effect analyzer and manual, Biosoft, Cambridge Place, Cambridge, U.K (1996)) and CompuSyn for Drug Combinations (Chou and Martin, Software for determination of synergism and antagonism and determination of IC50, ED50 and LD50, ComboSyn Inc., Paramus, N.J. (2005)). The entire contents of each of the above references are incorporated by reference in their entireties. […] DRI quantitates synergy as how many fold less of a dose is required to obtain a given level of effect for a combination of drugs versus the same effect for an individual component of the combination.

[5] = Description: The experimental procedure for FIG. 14 was carried out similarly to that in FIG. 1. * means P<0.1 and ** means P<0.05. Body weight was calculated as described for FIGS. 1 and 4-7.
The experiments were performed as indicated for FIG. 14, with Compound (K) being administered orally. Compound K was administered on the days indicated by the arrows at the top of the graph, and paclitaxel was administered on the days indicated by the arrows on the bottom of the graph. Body weight was calculated as described for FIGS. 1, 4-7, 14 and 15. * means P<0.1 and ** means P<0.05.

[6] = system: CCRF-CEM subline resistant to TAXOL; test: In vitro cytotoxicity against TAXOL-resistant CCRF-CEM subline; format: cell-based, human; details: Table 3A-2
Description: as §2, §4

[7] = for Total score: Table 11A, First Round, days 09-27; for 1st & 2nd Cycle Total Score / 2nd Cycle Total Score: Table 11C; for toxicity score (neurotoxicity): nude, mouse, in vivo
Description: The “toxicity score” (or “Total Score” in Tables 11A-C) is determined by adding the neurotoxicity ratings. The ratings used are: Normal (−, a toxicity score of 0); slightly unable to balance (+, a toxicity score of 1); hind-leg paralysis (++, a toxicity score of 2); and 4-leg paralysis and death (+++, none observed).

[8] = Table 5, fold dose reduction allowed in the Panaxytriol + Fludelone combination

C=CC(=O)C#CC#CC[C@@H](O)[C@H](O)CCCCCCC [Compound (B)]
[3H]-AdR → RNA (% Activation ↑ or Inhibition ↓) (leukemic CCRF CEM cells; 15 μM, 15 min, ↑ (activation)): 30.7 ↑ % | [3H]-dThd → DNA (% Activation ↑ or Inhibition ↓) (leukemic CCRF CEM cells; 15 μM, 15 min, ↑ (activation)): 26.1 ↑ % | [3H]-AdR → RNA (% Activation ↑ or Inhibition ↓) (leukemic CCRF CEM cells; 100 μM, 60 min, ↓ (inhibition)): 82.0 ↓ % | [3H]-dThd → DNA (% Activation ↑ or Inhibition ↓) (leukemic CCRF CEM cells; 100 μM, 60 min, ↓ (inhibition)): 78.2 ↓ % | inhibition at 15 µM (leukemic CCRF CEM cells; Homo sapiens, CCRF-CEM, 15 μM, 15 min, ↓ (inhibition), read-out: [3H] Leu → Protein (% Activation ↑ or Inhibition ↓)): 62.8% | inhibition at 100 µM (leukemic CCRF CEM cells; Homo sapiens, CCRF-CEM, 100 μM, 60 min, ↓ (inhibition), read-out: [3H] Leu → Protein (% Activation ↑ or Inhibition ↓)): 78.2% | IC50 ([1]; read-out: IC50 in μM CCRF-CEM, Table 10, Aug. 22, 2003 (Stored), same solution kept at −20° C. in DMSO): 4.78 µM | IC50 ([1]; read-out: IC50 in μM CCRF-CEM, Table 10, Jul. 25, 2003 (Fresh)): 0.72 ± 0.14 µM | IC50 ([1]; read-out: IC50 in μM CCRF-CEM/VBL, Table 10, Aug. 22, 2003 (Stored), same solution kept at −20° C. in DMSO): 5.29 µM | IC50 ([1]; read-out: IC50 in μM CCRF-CEM/VBL, Table 10, Jul. 25, 2003 (Fresh)): 0.95 µM | IC50 ([2]; read-out: IC50 CCRF ± CEM/VBL): 6.29 ± 1.41 µM | fold resistance in brackets (IC50 CCRF-CEM/VBL vs CCRF-CEM) [2]: 1.40 x | IC50 ([3]; read-out: IC50 CCRF-CEM, Table 3, XTT, 72-hour): 4.49 ± 0.41 µM

C=CC(=O)C#CC#CC[C@H]1OC(C)(C)O[C@@H]1CCCCCCC [Compound (C)]
IC50 ([1]; Table 10, Aug. 22, 2003 (Stored), same solution kept at −20° C. in DMSO, read-out: IC50 in μM CCRF-CEM): 2.68 µM | IC50 ([1]; Table 10, Aug. 22, 2003 (Stored), same solution kept at −20° C. in DMSO, read-out: IC50 in μM CCRF-CEM/VBL): 3.9 µM | IC50 ([1]; Table 10, Jul. 25, 2003 (Fresh), read-out: IC50 in μM CCRF-CEM): 0.404 µM | IC50 ([1]; Table 10, Jul. 25, 2003 (Fresh), read-out: IC50 in μM CCRF-CEM/VBL): 0.7 µM | fold resistance in brackets (IC50 CCRF-CEM/VBL vs CCRF-CEM) [2]: 1.19 x

C/C(=C\c1csc(C)n1)[C@@H]1C/C=C(/C(F)(F)F)C/C=C/[C@H](C)[C@H](O)[C@@H](C)C(=O)C(C)(C)[C@@H](O)CC(=O)O1 [Fludelone]
IC50 ([4]; Table 5, Panaxytriol + Fludelone combination (1.199 + 0.0012), read-out: Dose-effect parameter Dm (IC50) of the component in the combination): 1.2 nM | IC50 ([4]; Table 5, each drug alone, read-out: Dose-effect parameter Dm (IC50)): 2.7 nM | Dose-Reduction Index (DRI) at IC50 [4, 8]: 2.27 | Dose-Reduction Index (DRI) at IC75 [4, 8]: 7.02 | Dose-Reduction Index (DRI) at IC90 [4, 8]: 21.69 | Dose-Reduction Index (DRI) at IC95 [4, 8]: 46.73 | dose-reduction index (DRI) ([4]; panaxytriol + Fludelone combination, MX-1 cells): 2.27-46.73

CC(=O)O[C@H]1C(=O)[C@@]2(C)[C@H]([C@H](OC(=O)c3ccccc3)[C@]3(O)C[C@H](OC(=O)[C@H](O)[C@@H](NC(=O)c4ccccc4)c4ccccc4)C(C)=C1C3(C)C)[C@]1(OC(C)=O)CO[C@@H]1C[C@@H]2O [paclitaxel]
complete remission (CR) ([5]; FIG. 14, paclitaxel 25 mg/kg iv Q2D×8, with or without Compound K 30 mg/kg iv Q4D×14): 10/10 | BW loss ([5]; mouse, in vivo): approximately 25% | decrease in BW ([5]; mouse, in vivo): 13.2% | IC50 ([2]; Table 3A-2, CCK-8, 72-hr exposure, read-out: CCRF-CEM/VBL (IC50 in μM)): 2.26 µM | Fold of resistance (IC50 ratio CCRF-CEM/VBL vs CCRF-CEM) ([2]; Table 3A-2): 1741 fold | IC50 ([6]; Homo sapiens, CCRF-CEM, CCK-8, 72-hr exposure, read-out: CCRF-CEM/TAXOL (IC50 in μM)): 1.12 µM | Fold of resistance (IC50 ratio CCRF-CEM/TAXOL vs CCRF-CEM) [6]: 860 fold | IC50 ([3]; read-out: CCRF-CEM (IC50 in μM), Table 3A-2, CCK-8, 72-hr exposure): 0.0013 µM | Total score ([7]; per mouse): 8 (3×) and 2 (2×) and 0 and 5 and 3 and 10 and 7 | Total score ([7]; whole group of 10 mice): 53 | 1st & 2nd Cycle Total Score ([7]; per mouse, listed as Taxol): 33 (2×) and 4 (2×) and 15 and 35 and 18 and 34 and 27 and 31 | 2nd Cycle Total Score ([7]; per mouse, listed as Taxol): 25 (2×) and 2 (2×) and 15 (2×) and 30 and 24 and 20 and 23 | 1st & 2nd Cycle Total Score ([7]; whole group of 10 mice): 234 | 2nd Cycle Total Score ([7]; whole group of 10 mice): 181 | 1st Total score (group) ([7]; days 12-26, sum over 11 mice of the group, first round of paclitaxel): 13 | 1st Total score (per mouse) ([7]; days 12-26, sum per individual mouse, first round of paclitaxel): 3 and 2 (3×) and 4 | 2nd Total Score up to day 42 (group) ([7]; days 28-42, sum over 11 mice of the group, second round of paclitaxel): 79 | 2nd Total Score up to day 42 (per mouse) ([7]; days 28-42, sum per individual mouse, second round of paclitaxel): 8 and 6 (3×) and 9 (3×) and 7 and 5 and 4 and 10 | toxicity score (neurotoxicity) ([7]; 27 day): 2 | toxicity score (neurotoxicity) ([7]; 59 day): 6
